Among the data in US9242984B2, “Pyrazolyl derivatives as Syk inhibitors” (Merck Sharp & Dohme Corp., priority 2012, dated 2016) are IC50 values, retold here.

Read-outs that look alike come from different tables or passages of the source.

This experiment deals with T1, recombinant human Syk (GST-hSyk fusion protein) (Homo sapiens, UniProt P43405).
T1 construct: purchased Carna Biosciences 08-176
Description: Homogeneous Time-Resolved Fluorescence (HTRF) assay for the recombinant human Syk enzyme. In kind it is biochemical. Particulars: 10-dose titration, 25 μM ATP. The method in brief:
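GST-hSyk (5 pM) preincubated 10 min with compound (0.1% DMSO) in 15 mM Tris-HCl pH 7.5, 2 mM DTT; reaction started with 250 nM biotinylated peptide, 5 mM Mg, 25 μM ATP, 45 min, room temperature. EDTA quench, Eu-anti-phosphotyrosine/SA-APC HTRF read after 30 min; IC50 from 10-dose titration (10 μM–0.508 nM), four-parameter fit.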
(In general: TR-FRET usually uses a lanthanide donor and a delayed reading to cut background.)

Where [1] appears, read: IC50 class, read-out: rhSYK Activity.

On to `Cc1cc(Nc2nccc(C(F)(F)F)n2)cc(-c2cnn(C(C)C3(O)CCOCC3)c2)c1` (stereo not shown) [Example 12.14, 4-{1-[4-(3-methyl-5-{[4-(trifluoromethyl)pyrimidin-2-yl]amino}phenyl)-1H-pyrazol-1-yl]ethyl}-tetrahydro-2H-pyran-4-ol], for which, under setting [1], the IC50 is at most 100 nM.
For the molecule `Cc1cc(Nc2nccc(C(F)(F)F)n2)cc(-c2cnn(CC3(O)CCN(CC(=O)O)CC3)c2)c1` [Example 12.15, (4-hydroxy-4-{[4-(3-methyl-5-{[4-(trifluoromethyl)-pyrimidin-2-yl]amino}-phenyl)-1H-pyrazol-1-yl]methyl}piperidin-1-yl)acetic acid], under setting [1], the IC50 is at most 100 nM.
For the molecule `Cc1cc(Nc2nccc(C(F)(F)F)n2)cc(-c2cnn(C(C)C)c2)c1` [Example 13.1, N-(3-(1-isopropyl-1H-pyrazol-4-yl)-5-methylphenyl)-4-(trifluoromethyl)-pyrimidin-2-amine], the IC50 is 10.7 nM (read-out: rhSYK IC50) and at most 100 nM under setting [1].
Turning to `Cc1cc(Nc2nccc(C(F)(F)F)n2)cc(-c2cnn(CCC3CCCN3)c2)c1` (stereo not shown) [Example 13.2, N-{3-methyl-5-[1-(2-pyrrolidin-2-ylethyl)-1H-pyrazol-4-yl]phenyl}-4-(trifluoro-methyl)-pyrimidin-2-amine], the IC50 under setting [1] was at most 100 nM.
As for `Cc1cc(Nc2nccc(C(F)(F)F)n2)cc(-c2cnn(CC3CCCO3)c2)c1` (stereo not shown) [Example 13.3, N-{3-methyl-5-[1-(tetra-hydrofuran-2-ylmethyl)-1H-pyrazol-4-yl]phenyl}-4-(trifluoro-methyl)-pyrimidin-2-amine], the IC50 under setting [1] is at most 100 nM.
In the case of `Cc1cc(Nc2nccc(C(F)(F)F)n2)cc(-c2cnn([C@H]3CC[C@@H](O)CC3)c2)c1` [Example 15, cis-4-[4-(3-methyl-5-{[4-(trifluoromethyl)pyrimidin-2-yl]amino}phenyl)-1H-pyrazol-1-yl]cyclohexanol], the IC50 by setting is: (read-out: rhSYK IC50) 5.9 nM; under setting [1], at most 100 nM.
The like results for `Cc1cc(Nc2nccc(C(F)F)n2)cc(-c2cnn(C[C@H](O)C(N)=O)c2)c1` [Example 16, (2S)-3-[4-(3-{[4-(difluoromethyl)pyrimidin-2-yl]amino}-5-methylphenyl)-1H-pyrazol-1-yl]-2-hydroxypropanamide] were, in that order, 2.7 nM and at most 100 nM.
For `Cc1cc(Nc2nccc(C(F)(F)F)n2)cc(-c2cnn(CC3(O)CCN(C(N)=O)CC3)c2)c1` [Example 17, 4-hydroxy-4-((4-(3-methyl-5-((4-(trifluoromethyl)pyrimidin-2-yl)amino)phenyl)-1H-pyrazol-1-yl)methyl)piperidine-1-carboxamide], the IC50 runs as follows: (read-out: rhSYK IC50) 13.9 nM; under setting [1], at most 100 nM.
Take `O=C(O)CCc1cnn(-c2cccc(Nc3cc(C(F)(F)F)ccn3)n2)c1` [Example 18.1, 3-(1-(6-((4-(trifluoromethyl)pyridin-2-yl)amino)pyridin-2-yl)-1H-pyrazol-4-yl)propanoic acid]: under setting [1], the IC50 is at most 100 nM.
`Cc1ccnc(Nc2cccc(-n3cc(CCC(=O)O)cn3)n2)c1` [Example 18.2, 3-(1-{6-[(4-methylpyridin-2-yl)amino]pyridin-2-yl}-1H-pyrazol-4-yl)propanoic acid]: the IC50 under setting [1] fell in the range of 100 to 1000 nM.
Regarding `Cc1cc(Nc2cc(C3CC3)ccn2)nc(-n2cc(CCC(=O)O)cn2)c1` [Example 18.3, 3-(1-{6-[(4-cyclopropylpyridin-2-yl)amino]-4-methylpyridin-2-yl}-1H-pyrazol-4-yl)propanoic acid], the IC50 under setting [1] was at most 100 nM.
As for `Cc1cc(Nc2cc(C)c(Cl)cn2)nc(-n2cc(CCC(=O)O)cn2)c1` [Example 18.4, 3-(1-{6-[(5-chloro-4-methylpyridin-2-yl)amino]-4-methylpyridin-2-yl}-1H-pyrazol-4-yl)propanoic acid], the IC50 under setting [1] was 100 to 1000 nM.
In the case of `Cc1cc(Nc2nccc(C(F)(F)F)n2)cc(-n2cc(CCC(=O)O)cn2)c1` [Example 19.1, 3-(1-(3-methyl-5-((4-(trifluoromethyl)pyrimidin-2-yl)amino)phenyl)-1H-pyrazol-4-yl)propanoic acid], the IC50 is 61 nM (read-out: rhSYK IC50) and at most 100 nM under setting [1].
Turning to `CCOC(=O)CCc1cnn(-c2cc(C)cc(Nc3nccc(C(F)(F)F)n3)c2)c1` [Example 19.2, Ethyl 3-[1-(3-methyl-5-{[4-(trifluoromethyl)-pyrimidin-2-yl]amino}phenyl)-1H-pyrazol-4-yl]propanoate], under setting [1], the IC50 lay in the range of 100 to 1000 nM.
Regarding `Cc1cc(Nc2nccc(C3CC3)n2)cc(-n2cc(CCC(=O)O)cn2)c1` [Example 19.3, 3-(1-{3-[(4-cyclopropylpyrimidin-2-yl)amino]-5-methylphenyl}-1H-pyrazol-4-yl)propanoic acid], the IC50 under setting [1] was at most 100 nM.
Take `CCOC(=O)CCc1cnn(-c2cc(C)cc(Nc3nccc(C4CC4)n3)c2)c1` [Example 19.4, Ethyl 3-(1-{3-[(4-cyclopropylpyrimidin-2-yl)amino]-5-methylphenyl}-1H-pyrazol-4-yl)propanoate]: under setting [1], the IC50 lay in the range of 100 to 1000 nM.
Turning to `CCOC(=O)CCc1cnn(-c2cc(C)cc(Nc3nccc(OC)n3)c2)c1` [Example 19.5, Ethyl 3-(1-{3-[(4-methoxypyrimidin-2-yl)amino]-5-methylphenyl}-1H-pyrazol-4-yl)propanoate], under setting [1], the IC50 lay within 100 to 1000 nM.
`CCOC(=O)CCc1cnn(-c2cc(C)cc(Nc3nccc(C)n3)c2)c1` [Example 19.6, Ethyl 3-(1-{3-methyl-5-[(4-methyl-pyrimidin-2-yl)amino]-phenyl}-1H-pyrazol-4-yl)propanoate]: under setting [1], the IC50 lay in the range of 100 to 1000 nM.
Still for that read-out and setting: to `Cc1cc(Nc2nccc(C(F)(F)F)n2)cc(-n2cc(C3(O)CCC(C(=O)O)CC3)cn2)c1` (stereo not shown) [Example 19.10, 4-hydroxy-4-[1-(3-methyl-5-{[4-(trifluoromethyl)pyrimidin-2-yl]amino}phenyl)-1H-pyrazol-4-yl]cyclohexanecarboxylic acid] belongs 100 to 1000 nM; to `Cc1cc(Nc2nccc(C(F)(F)F)n2)cc(-n2cc(C3(O)CCC(C(=O)O)CC3)cn2)c1` (stereo not shown) [Example 19.11, 4-hydroxy-4-[1-(3-methyl-5-{[4-(trifluoromethyl)pyrimidin-2-yl]amino}phenyl)-1H-pyrazol-4-yl]cyclohexanecarboxylic acid], at most 100 nM.
`Cc1cc(Nc2nccc(C(F)(F)F)n2)cc(-n2cc(C(C)(O)[C@H]3CC[C@H](C(=O)O)CC3)cn2)c1` (stereo partly drawn) [Example 19.12, trans-4-{1-hydroxy-1-[1-(3 methyl-5-{[4-(trifluoromethyl)pyrimidin-2-yl]amino}phenyl)-1H-pyrazol-4-yl]ethyl}cyclohexanecarboxylic acid]: the IC50 under setting [1] was at most 100 nM.
Same read-out and setting: to `Cc1cc(Nc2nccc(C(F)(F)F)n2)cc(-n2cc(C(C)(O)[C@H]3CC[C@H](C(=O)O)CC3)cn2)c1` (stereo partly drawn) [Example 19.13, trans-4-{1-hydroxy-1-[1-(3-methyl-5-{[4-(trifluoromethyl)pyrimidin-2-yl]amino}phenyl)-1H-pyrazol-4-yl]ethyl}cyclohexanecarboxylic acid] belongs at most 100 nM; to `Cc1cc(Nc2nccc(C(F)(F)F)n2)cc(-n2cc(C3(O)CCC(C(=O)O)C(C)(C)C3)cn2)c1` (stereo not shown) [Example 19.14, 4-hydroxy-2,2-dimethyl-4-[1-(3-methyl-5-{[4-(trifluoromethyl)pyrimidin-2-yl]amino}phenyl)-1H-pyrazol-4-yl]cyclohexanecarboxylic acid], 100 to 1000 nM.
